Reference: patent publication US20240194290A1, “HIDDEN ANTIBIOTICS IN THE HUMAN PROTEOME” (THE TRUSTEES OF THE UNIVERSITY OF PENNSYLVANIA, priority 2021, published 2024)
Ends that are not written are not given here.

Assays:
Test in all cases: Outer membrane permeabilization (NPN uptake) assay
Conditions in all cases: peptides at MIC
P. aeruginosa PAO1 = assay type: cell-based, Pseudomonas aeruginosa
Experimental: (§1) FIG. 10. Membrane permeabilization and depolarization assays for several bacterial strains. […] FIG. 10B: Cytoplasmic membrane depolarization assays performed against P. aeruginosa PAO1 and the gut commensal B. fragilis ATCC25285.
(§2) Methods: Membrane depolarization assays. The cytoplasmic membrane depolarization activity of the peptides was determined by measurements of fluorescence of the membrane potential-sensitive dye, DiSC3(5). Briefly, A. baumannii ATCC19606, P. aeruginosa PAO1 and B. fragilis ATCC25285 were grown at 37° C. with agitation until they reached mid-log phase (OD600=0.5). […] Thereafter, the cells (100 μL) were incubated for 15 min with 20 nmol L^−1 of DiSC3(5) until a stable reduction of fluorescence was achieved, indicating the incorporation of the dye into the bacterial membrane. Membrane depolarization was then monitored by observing the change in the fluorescence emission intensity of the membrane potential-sensitive dye, DiSC3(5) (λex=622 nm, λem=670 nm), after the addition of peptides (100 μL solution at MIC values). […] The membrane permeability of the peptides was determined by using the N-phenyl-1-napthylamine (NPN) uptake assay. […] The background fluorescence was recorded at λex=350 nm and λem=420 nm. […]

S. epidermidis = assay type: cell-based, Staphylococcus epidermidis
Experimental: as §1, §2

B. fragilis ATCC25285 = assay type: cell-based, Bacteroides fragilis
Experimental: as §1, §2

Measured: outer membrane permeabilization (NPN)

SKEMFPRSFIKLLRSKVSRFLRPYK [SCUB1-SKE25]
permeabilized: P. aeruginosa PAO1 | S. epidermidis | B. fragilis ATCC25285
